*1 amine or outer side, *2 acyl side, *3 side chain or, on linkers, in order; H or OH if unused. Where a SMILES comes first, the peptide text is derived from it. Bridges are numbered along the chain shown (N, C = ends). [ ]: non-standard residue; d: D form. The star is where a group is joined. hPhe(3-Cl-4-CF3) = N[C@@H](CCc1ccc(C(F)(F)F)c(Cl)c1)C(=O)O; X22 = C=CCCN([C@@H](Cc1ccc(C(F)(F)F)cc1)C(=O)[*:2])[*:1]; NPrPhe(4-CF3) = CCCN[C@@H](Cc1ccc(C(F)(F)F)cc1)C(=O)O; NMePhe(4-Me) = CN[C@@H](Cc1ccc(C)cc1)C(=O)O; NMeGly(cPent) = CN[C@H](C(=O)O)C1CCCC1; Hyp = O=C(O)[C@@H]1C[C@@H](O)CN1; NMeD = CN[C@@H](CC(=O)O)C(=O)O; NMeL = CN[C@@H](CC(C)C)C(=O)O; NMeNva = CCC[C@H](NC)C(=O)O; Morpholide = C1CN(*)CCO1; Ac5c = NC1(C(=O)O)CCCC1; Aze = O=C(O)[C@@H]1CCN1; Ac4c = NC1(C(=O)O)CCC1; NPrGly = CCCNCC(=O)O; NEtG = CCNCC(=O)O; Sar = CNCC(=O)O
Key:
HRAS wild-type protein = HRAS wild-type protein (Homo sapiens, UniProt P01112); test: Binding to HRAS by surface plasmon resonance (SPR), KD and KD ratio to KRAS
Summary of the method: (§1)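 Affinity is measured by surface plasmon resonance at 30°C against captured, GDP-loaded RAS carrying a biotinylated Avi tag. Compounds are titrated by single-cycle kinetics, and KD comes from a 1:1 fit.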

[1] = molecular target: GDP-bound NRAS wild-type protein (Homo sapiens, UniProt P01111); test: Binding to NRAS by surface plasmon resonance (SPR), KD and KD ratio to KRAS
Summary of the method: as §1

[2] = tested on: human lung cancer strain NCI-H441; type: cell-based
Summary of the method: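 Readout: […] after the ATP-based reagent. Compound: serial dilutions in dimethyl sulfoxide.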

[3] = ratio of the KD value with respect to HRAS wild-type protein to the KD value with respect to KRAS
[4] = ratio of the KD value with respect to GDP-bound NRAS wild-type protein to the KD value with respect to KRAS
[5] = ratio of KD for HRAS wild-type protein to KD for KRAS
[6] = ratio of KD for GDP-bound NRAS wild-type protein to KD for KRAS

Chain of GDP-bound NRAS wild-type protein (P01111 whole entry): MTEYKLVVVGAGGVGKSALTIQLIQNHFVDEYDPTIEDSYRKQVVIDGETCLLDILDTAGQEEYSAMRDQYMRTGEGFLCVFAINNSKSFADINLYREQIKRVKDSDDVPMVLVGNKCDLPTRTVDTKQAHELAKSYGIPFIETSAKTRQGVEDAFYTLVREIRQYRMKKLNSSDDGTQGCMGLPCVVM
Chain of HRAS wild-type protein (P01112 whole entry): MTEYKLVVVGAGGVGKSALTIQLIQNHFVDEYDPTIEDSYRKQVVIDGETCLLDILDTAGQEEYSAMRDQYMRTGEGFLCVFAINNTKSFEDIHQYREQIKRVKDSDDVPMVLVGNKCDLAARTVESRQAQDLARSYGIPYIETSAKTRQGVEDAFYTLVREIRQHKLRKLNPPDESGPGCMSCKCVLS

Compound | IC50 [2] [nM] | HRAS /KRAS (HRAS wild-type protein; [3]) | NRAS /KRAS [1, 4] | HRAS /KRAS (HRAS wild-type protein; [5]) | NRAS /KRAS [1, 6] | other results
CCC[C@H]1C(=O)N[C@@H]([C@@H](C)CC)C(=O)N(CCC)CC(=O)N(C)CC(=O)N(CCC)[C@@H](Cc2ccc(C(F)(F)F)cc2)C(=O)N(C)CC(=O)N[C@@H](CCc2ccc(C(F)(F)F)c(Cl)c2)C(=O)N2CCC[C@H]2C(=O)NC2(CCC2)C(=O)N(C)[C@@H](C2CCCC2)C(=O)N(C)[C@H](C(=O)N2CCOCC2)CC(=O)N1C [PP1947] ([NMeNva]I[NPrGly][Sar][NPrPhe(4-CF3)][Sar][hPhe(3-Cl-4-CF3)]P[Ac4c][NMeGly(cPent)][NMeD]-Morpholide; lactam N-11) | 22 | B (a compound having 3 or more and less than 10 is denoted as B) | B (a compound having 3 or more and less than 10 is denoted as B) | – | – | –
CCCN1C(=O)[C@@H]2CCN2C(=O)CN(C)C(=O)[C@H]([C@@H](C)CC)NC(=O)[C@H](CC(C)C)N(C)C(=O)C[C@@H](C(=O)N2CCOCC2)NC(=O)[C@H](C2CCCC2)N(C)C(=O)C2(CCC2)NC(=O)[C@@H]2C[C@@H](OCC)CN2C(=O)[C@H](CCc2ccc(C(F)(F)F)c(Cl)c2)NC(=O)CN(C)C(=O)[C@@H]1Cc1ccc(C(F)(F)F)cc1 [PP0354] ([NMeL]I[Sar][Aze][NPrPhe(4-CF3)][Sar][hPhe(3-Cl-4-CF3)][Hyp](Et)[Ac4c][NMeGly(cPent)]D-Morpholide; lactam N-11) | 24.7 | – | – | B (a compound having 3 or more and less than 10 is denoted as B) | C (A compound having a KD ratio of 0.1 or more and less than 3 is denoted as C) | –
CCC[C@H]1C(=O)N[C@@H]([C@@H](C)CC)C(=O)N(C)CC(=O)N(C)[C@H]2C/C=C\CCN(C2=O)[C@@H](Cc2ccc(C(F)(F)F)cc2)C(=O)N(C)CC(=O)N[C@@H](CCc2ccc(C(F)(F)F)c(OC)c2)C(=O)N2C[C@H](OCC)C[C@H]2C(=O)NC2(CC(C)(C)C2)C(=O)N(C)[C@@H](CC2CC2)C(=O)N(C)[C@H](C(=O)N(C)C)CC(=O)N1C [PP2809] | 76.6 | – | – | A (a compound having 10 or more and less than 20 is denoted as A) | A (a compound having 10 or more and less than 20 is denoted as A) | –
CC[C@H](C)[C@@H]1NC(=O)[C@H](CC(C)C)N(C)C(=O)C[C@@H](C(=O)N2CCOCC2)N(C)C(=O)[C@H](C2CCCC2)N(C)C(=O)C2(CCCC2)NC(=O)[C@@H]2CCCN2C(=O)[C@H](CCc2ccc(C(F)(F)F)c(Cl)c2)NC(=O)CN(C)C(=O)[C@H](Cc2ccc(Cl)cc2)N2C/C=C\CC[C@@H](C2=O)N(C)C(=O)CN(C)C1=O [PP0608] | 252 | B (a compound having 3 or more and less than 10 is denoted as B) | C (A compound having a KD ratio of 0.1 or more and less than 3 is denoted as C) | – | – | –
CC[C@H](C)[C@@H]1NC(=O)[C@H](CC(C)C)N(C)C(=O)C[C@@H](C(=O)N(C)C)N(C)C(=O)[C@H](C2CCCC2)N(C)C(=O)C2(CCCC2)NC(=O)[C@@H]2CC(F)(F)CN2C(=O)[C@H](CCc2cc(F)c(C(F)(F)F)c(F)c2)NC(=O)CN(C)C(=O)[C@H](Cc2ccc(C(F)(F)F)cc2)N2CCCCC[C@@H](C2=O)N(C)C(=O)CN(C)C1=O [PP0465] | 18 | B (a compound having 3 or more and less than 10 is denoted as B) | B (a compound having 3 or more and less than 10 is denoted as B) | – | – | –
CC[C@H](C)[C@@H]1NC(=O)[C@H](CC(C)C)N(C)C(=O)C[C@@H](C(=O)N2CCOCC2)N(C)C(=O)[C@H](CC(F)(F)F)N(C)C(=O)C2(CCCC2)NC(=O)[C@@H]2CCCN2C(=O)[C@H](CCc2cc(F)c(C(F)(F)F)c(F)c2)NC(=O)CN(C)C(=O)[C@H](Cc2ccc(C(F)(F)F)cc2)N2CCCCC[C@@H](C2=O)N(C)C(=O)CN(C)C1=O [PP0506] | 705 | B (a compound having 3 or more and less than 10 is denoted as B) | B (a compound having 3 or more and less than 10 is denoted as B) | – | – | –
CC[C@H](C)[C@@H]1NC(=O)[C@H](CC(F)(F)F)N(C)C(=O)C[C@@H](C(=O)N2CCOCC2)N(C)C(=O)[C@H](C2CCCC2)N(C)C(=O)C2(CCCC2)NC(=O)[C@@H]2CCCN2C(=O)[C@H](CCc2cc(F)c(C(F)(F)F)c(F)c2)NC(=O)CN(C)C(=O)[C@H](Cc2ccc(C(F)(F)F)cc2)N2CCCCC[C@@H](C2=O)N(C)C(=O)CN(C)C1=O [PP0520] | 17.1 | B (a compound having 3 or more and less than 10 is denoted as B) | B (a compound having 3 or more and less than 10 is denoted as B) | – | – | –
CCO[C@@H]1C[C@H]2C(=O)NC3(CCC3)C(=O)N(C)[C@@H](C3CCCC3)C(=O)N(C)[C@H](C(=O)N3CCCC3)CC(=O)N(C)[C@@H](CC)C(=O)N[C@@H]([C@@H](C)CC)C(=O)N(C)CC(=O)N(C)[C@H]3C/C=C\CCN(C3=O)[C@@H](Cc3ccc(C(F)(F)F)cc3)C(=O)N(C)CC(=O)N[C@@H](CCc3cc(F)c(C(F)(F)F)c(F)c3)C(=O)N2C1 [PP1090] | 20.9 | – | – | A (a compound having 10 or more and less than 20 is denoted as A) | AA (a compound having 20 or more is denoted as AA) | –

Stronger by IC50 [2], values ahead:

IC50 [2] [nM] | Compound | HRAS /KRAS (HRAS wild-type protein; [3]) | NRAS /KRAS [1, 4] | HRAS /KRAS (HRAS wild-type protein; [5]) | NRAS /KRAS [1, 6] | other results
1.6 | CCO[C@@H]1C[C@H]2C(=O)NC3(CC(C)(C)C3)C(=O)N(C)[C@@H](C3CCCC3)C(=O)N(C)[C@H](C(=O)N(C)CC)CC(=O)N(C)[C@@H](CC(F)F)C(=O)N[C@@H]([C@@H](C)CC)C(=O)N(C)CC(=O)N(C)[C@H]3C/C=C\CCN(C3=O)[C@@H](Cc3ccc(C(F)(F)F)cc3)C(=O)N(C)CC(=O)N[C@@H](CCc3cc(F)c(C(F)(F)F)c(F)c3)C(=O)N2C1 [PP1643] | – | – | – | – | HRAS /KRAS (HRAS wild-type protein; ratio of KD value for HRAS wild-type protein to KD value for KRAS (SPR)): A (a compound having 10 or more and less than 20 is denoted as A); NRAS /KRAS ([1]; ratio of KD value for GDP-bound NRAS wild-type protein to KD value for KRAS (SPR)): A (a compound having 10 or more and less than 20 is denoted as A)
8.8 | C=CCCN1C(=O)CN(C)C(=O)CN(C)C(=O)[C@H]([C@@H](C)CC)NC(=O)[C@H](CC(C)C)N(C)C(=O)C[C@@H](C(=O)N2CCOCC2)N(C)C(=O)[C@H](C2CCCC2)N(C)C(=O)C2(CCCC2)NC(=O)[C@@H]2CCCN2C(=O)[C@H](CCc2ccc(C(F)(F)F)c(Cl)c2)NC(=O)CN(C)C(=O)[C@@H]1Cc1ccc(C(F)(F)F)cc1 [PP0129] ([NMeL]I[Sar][Sar][X22][Sar][hPhe(3-Cl-4-CF3)]P[Ac5c][NMeGly(cPent)][NMeD]-Morpholide; lactam N-11) | – | – | C (A compound having a KD ratio of 0.1 or more and less than 3 is denoted as C) | B (a compound having 3 or more and less than 10 is denoted as B) | –
7.8 | CCCO[C@H](C)[C@@H]1NC(=O)[C@H](CC(C)C)N(C)C(=O)C[C@@H](C(=O)N(C)C)N(C)C(=O)[C@H](C2CCCC2)N(C)C(=O)C2(CC(C)(C)C2)NC(=O)[C@@H]2C[C@@H](OCC)CN2C(=O)[C@H](CCc2cc(F)c(C(F)(F)F)c(F)c2)NC(=O)CN(C)C(=O)[C@H](Cc2ccc(C(F)(F)F)cc2)N2CC/C=C\C[C@@H](C2=O)N(C)C(=O)CN(C)C1=O [PP1921] | A (a compound having 10 or more and less than 20 is denoted as A) | A (a compound having 10 or more and less than 20 is denoted as A) | – | – | –
10.9 | CCO[C@@H]1C[C@H]2C(=O)NC3(CCC3)C(=O)N(C)[C@@H](C3CCCC3)C(=O)N(C)[C@H](C(=O)N(CC)CC)CC(=O)N(C)[C@@H](C)C(=O)N[C@@H]([C@@H](C)CC)C(=O)N(C)CC(=O)N(C)[C@H]3C/C=C\CCN(C3=O)[C@@H](Cc3ccc(C(F)(F)F)cc3)C(=O)N(C)CC(=O)N[C@@H](CCc3cc(F)c(C(F)(F)F)c(F)c3)C(=O)N2C1 [PP1308] | – | – | – | – | HRAS /KRAS (HRAS wild-type protein; ratio of KD with respect to HRAS wild-type protein to KD with respect to KRAS): A (a compound having 10 or more and less than 20 is denoted as A); NRAS /KRAS ([1]; ratio of KD with respect to GDP-bound NRAS wild-type protein to KD with respect to KRAS): A (a compound having 10 or more and less than 20 is denoted as A)
1.1 | CCO[C@@H]1C[C@H]2C(=O)NC3(CC(C)(C)C3)C(=O)N(C)[C@@H](C3CCCC3)C(=O)N(C)[C@H](C(=O)N(C)C)CC(=O)N(C)[C@H]3CCCCCc4ccc(cc4)C[C@@H](C(=O)N(C)CC(=O)N[C@@H](CCc4ccc(C(F)(F)F)c(OC)c4)C(=O)N2C1)N1CC/C=C\C[C@@H](C1=O)N(C)C(=O)CN(C1CC1)C(=O)[C@H]([C@@H](C)CC)NC3=O [PP3075] | – | – | A (a compound having 10 or more and less than 20 is denoted as A) | A (a compound having 10 or more and less than 20 is denoted as A) | –
6.7 | CC[C@H](C)[C@@H]1NC(=O)[C@H](CC(C)C)N(C)C(=O)C[C@@H](C(=O)N2CCOCC2)N(C)C(=O)[C@H](C2CCCC2)N(C)C(=O)C2(CCCC2)NC(=O)[C@@H]2CCCN2C(=O)[C@H](CCc2ccc(C(F)(F)F)c(Cl)c2)NC(=O)CN(C)C(=O)[C@H](Cc2ccc(C)cc2)N(C)C(=O)CN(CC)C(=O)CN(C)C1=O [PP0019] ([NMeL]I[Sar][NEtG][NMePhe(4-Me)][Sar][hPhe(3-Cl-4-CF3)]P[Ac5c][NMeGly(cPent)][NMeD]-Morpholide; lactam N-11) | – | – | C (A compound having a KD ratio of 0.1 or more and less than 3 is denoted as C) | C (A compound having a KD ratio of 0.1 or more and less than 3 is denoted as C) | –
11.3 | CC[C@H](C)[C@@H]1NC(=O)[C@H](C(C)C)N(C)C(=O)C[C@@H](C(=O)N(C)CC)N(C)C(=O)[C@H](C2CCCC2)N(C)C(=O)C2(CC(C)(C)C2)NC(=O)[C@@H]2C[C@H](C)CN2C(=O)[C@H](CCc2ccc(C(F)(F)F)c(OC)c2)NC(=O)CN(C)C(=O)[C@H](Cc2ccc(C(F)(F)F)cc2)N2CC/C=C\C[C@@H](C2=O)N(C)C(=O)CN(C)C1=O [PP2003] | B (a compound having 3 or more and less than 10 is denoted as B) | A (a compound having 10 or more and less than 20 is denoted as A) | – | – | –
